Legend:
[1] = target: T1, recombinant human GBA (beta-glucocerebrosidase) (Homo sapiens, UniProt P04062); assay: Beta-glucocerebrosidase (GBA, glucosylceramidase) assay (4-methylumbelliferyl-beta-D-pyranoside substrate, fluorescence); format: biochemical
T1 sequence (P04062 40-536): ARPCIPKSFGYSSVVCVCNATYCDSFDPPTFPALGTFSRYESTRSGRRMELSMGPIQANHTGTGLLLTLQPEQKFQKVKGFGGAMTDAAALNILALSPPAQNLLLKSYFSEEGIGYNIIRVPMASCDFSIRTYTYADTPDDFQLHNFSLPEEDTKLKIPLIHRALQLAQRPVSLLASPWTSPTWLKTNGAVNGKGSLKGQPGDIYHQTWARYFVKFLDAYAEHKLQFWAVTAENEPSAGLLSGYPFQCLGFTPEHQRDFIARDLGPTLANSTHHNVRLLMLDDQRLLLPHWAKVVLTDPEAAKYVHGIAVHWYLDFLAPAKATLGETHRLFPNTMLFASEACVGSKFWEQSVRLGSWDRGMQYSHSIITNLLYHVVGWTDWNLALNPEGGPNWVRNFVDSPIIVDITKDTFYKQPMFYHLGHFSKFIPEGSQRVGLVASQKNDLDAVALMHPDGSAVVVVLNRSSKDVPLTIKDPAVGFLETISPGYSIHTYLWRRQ
In short: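 IC50 by four-parameter fit of percent inhibition, with product fluorescence (365/440 nm) read after a glycine/NaOH pH 10 stop. Compound and commercial recombinant human enzyme were incubated 60 min at 37 °C before a further 60 min at 37 °C with 4-methylumbelliferyl-beta-D-pyranoside substrate.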

[2] = target: rat sucrase (partially purified alpha-glucosidase from intestinal rat powder) (Rattus norvegicus, UniProt P23739); assay: Intestinal alpha-glucosidase assay, sucrose substrate (Glucose GO Kit); format: biochemical
In short: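 First step: 60 min, 37 °C, compound with partially purified rat intestinal alpha-glucosidase. Next, maltose or sucrose for 30 min at 37 °C, ended at 90 °C for 5 min. Glucose quantified enzymatically; concentration–inhibition data fitted 4-PL for IC50.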

rat sucrase (partially purified alpha-glucosidase from intestinal rat powder), sequence (P23739 whole entry): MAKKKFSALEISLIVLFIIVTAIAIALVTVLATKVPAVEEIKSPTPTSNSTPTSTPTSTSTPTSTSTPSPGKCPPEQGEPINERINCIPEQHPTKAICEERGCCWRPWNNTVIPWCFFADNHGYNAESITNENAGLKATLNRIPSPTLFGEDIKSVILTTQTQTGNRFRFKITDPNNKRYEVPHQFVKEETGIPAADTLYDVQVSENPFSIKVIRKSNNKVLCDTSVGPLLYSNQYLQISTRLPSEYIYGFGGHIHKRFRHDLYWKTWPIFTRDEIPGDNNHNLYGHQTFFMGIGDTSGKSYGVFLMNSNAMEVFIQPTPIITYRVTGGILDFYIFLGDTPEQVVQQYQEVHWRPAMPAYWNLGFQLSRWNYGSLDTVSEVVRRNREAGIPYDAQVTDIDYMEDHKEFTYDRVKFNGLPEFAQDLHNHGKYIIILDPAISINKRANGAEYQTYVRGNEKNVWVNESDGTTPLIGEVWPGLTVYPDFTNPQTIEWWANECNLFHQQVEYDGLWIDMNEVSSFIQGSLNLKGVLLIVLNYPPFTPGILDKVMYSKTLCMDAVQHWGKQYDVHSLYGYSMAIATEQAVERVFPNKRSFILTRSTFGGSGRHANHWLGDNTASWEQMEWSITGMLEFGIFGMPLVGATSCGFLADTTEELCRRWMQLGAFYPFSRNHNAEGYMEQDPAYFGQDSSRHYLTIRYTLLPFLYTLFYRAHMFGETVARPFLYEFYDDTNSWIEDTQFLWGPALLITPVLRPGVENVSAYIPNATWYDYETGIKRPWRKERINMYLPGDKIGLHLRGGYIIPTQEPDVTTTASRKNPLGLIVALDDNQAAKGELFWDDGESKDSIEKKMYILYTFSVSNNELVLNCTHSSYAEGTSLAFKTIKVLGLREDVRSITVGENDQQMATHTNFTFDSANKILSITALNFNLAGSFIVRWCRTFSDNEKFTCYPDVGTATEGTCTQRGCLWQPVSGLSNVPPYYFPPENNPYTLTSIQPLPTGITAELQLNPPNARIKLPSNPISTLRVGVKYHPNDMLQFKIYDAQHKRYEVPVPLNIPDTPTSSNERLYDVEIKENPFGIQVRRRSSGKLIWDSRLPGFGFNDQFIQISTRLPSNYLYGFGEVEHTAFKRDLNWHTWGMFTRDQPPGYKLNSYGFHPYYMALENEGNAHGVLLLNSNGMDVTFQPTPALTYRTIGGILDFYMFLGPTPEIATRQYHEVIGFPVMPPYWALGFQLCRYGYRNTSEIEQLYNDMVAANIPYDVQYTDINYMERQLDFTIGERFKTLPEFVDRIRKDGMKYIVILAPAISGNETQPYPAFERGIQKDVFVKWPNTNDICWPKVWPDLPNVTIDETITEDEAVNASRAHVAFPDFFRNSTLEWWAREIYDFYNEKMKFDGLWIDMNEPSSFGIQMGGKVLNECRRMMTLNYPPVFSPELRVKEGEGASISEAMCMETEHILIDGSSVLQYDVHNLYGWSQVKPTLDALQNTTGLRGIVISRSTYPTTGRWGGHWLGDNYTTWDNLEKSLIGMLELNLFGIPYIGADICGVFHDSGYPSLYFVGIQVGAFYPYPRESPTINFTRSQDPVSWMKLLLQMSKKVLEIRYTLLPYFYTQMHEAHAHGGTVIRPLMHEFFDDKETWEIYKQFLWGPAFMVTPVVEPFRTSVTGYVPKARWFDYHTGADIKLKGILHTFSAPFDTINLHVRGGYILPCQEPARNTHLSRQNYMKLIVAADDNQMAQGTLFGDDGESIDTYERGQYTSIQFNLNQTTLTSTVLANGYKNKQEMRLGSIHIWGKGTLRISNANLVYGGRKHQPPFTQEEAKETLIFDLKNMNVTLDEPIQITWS

With [N-]=[N+]=Nc1ccc(NCCC(O)C(O)CCN2C[C@H](O)[C@@H](O)[C@H](O)[C@H]2CO)c([N+](=O)[O-])c1 (stereo partly drawn) [Compound 1270, (2R,3R,4R,5S)-1-{6-[(4-azido-2-nitrophenyl)amino]-3,4-dihydroxy-hexyl}-2-(hydroxymethyl)piperidine-3,4,5-triol] the IC50 [1] was 0.081 µM and the IC50 [2] was 350 nM.
For OC[C@@H]1[C@@H](O)[C@H](O)[C@@H](O)CN1Cc1cnc(CNc2cc(-c3ncccn3)cc(C3CC3)c2)cn1 [Compound 1329, (2R,3R,4R,5S)-1-{[5-({[3-cyclopropyl-5-(pyrimidin-2-yl)phenyl]amino}methyl)pyrazin-2-yl]methyl}-2-(hydroxymethyl)piperidine-3,4,5-triol], the IC50 [1] was 82.9 µM and the IC50 [2] was 675 nM.
With [N-]=[N+]=Nc1ccc(N2CCN(CCN3C[C@H](O)[C@@H](O)[C@H](O)[C@H]3CO)CC2)c([N+](=O)[O-])c1 [Compound 1254, (2R,3R,4R,5S)-1-{2-[4-(4-azido-2-nitrophenyl)piperazin-1-yl]ethyl}-2-(hydroxymethyl)piperidine-3,4,5-triol] the IC50 [1] was > 100 µM and the IC50 [2] was 6530 nM.
Work on NC(=O)c1cc(-c2ncccn2)ccc1NCCCCCCN1C[C@H](O)[C@@H](O)[C@H](O)[C@H]1CO [Compound 1266, 5-(pyrimidin-2-yl)-2-({6-[(2R,3R,4R,5S)-3,4,5-trihydroxy-2-(hydroxymethyl)piperidin-1-yl]hexyl}amino)benzamide] yielded an IC50 [1] of 6.34 µM and an IC50 [2] of 140 nM.
[N-]=[N+]=Nc1ccc(NCCNC(=O)NCCN2C[C@H](O)[C@@H](O)[C@H](O)[C@H]2CO)c([N+](=O)[O-])c1 [Compound 1276, 1-{2-[(4-azido-2-nitrophenyl)amino]ethyl}-3-{2-[(2R,3R,4R,5S)-3,4,5-trihydroxy-2-(hydroxymethyl)piperidin-1-yl]ethyl}urea] gave an IC50 [1] of 0.062 µM and an IC50 [2] of 316 nM.
In the case of Cc1cc(NCc2ccc(CN3C[C@H](O)[C@@H](O)[C@H](O)[C@H]3CO)cc2)cc(-c2ncco2)c1 [Compound 1315, (2R,3R,4R,5S)-2-(hydroxymethyl)-1-{[4-({[3-methyl-5-(1,3-oxazol-2-yl)phenyl]amino}methyl)phenyl]methyl}piperidine-3,4,5-triol], the IC50 [1] is reported as > 100 µM and the IC50 [2] is reported as 44 nM.
With Cc1cc(NCc2cccc(CN3C[C@H](O)[C@@H](O)[C@H](O)[C@H]3CO)c2)cc(-c2cccnn2)c1 [Compound 1034, (2R,3R,4R,5S)-2-(hydroxymethyl)-1-{[3-({[3-methyl-5-(pyridazin-3-yl)phenyl]amino}methyl)phenyl]methyl}piperidine-3,4,5-triol] the IC50 [1] was 91.9 µM and the IC50 [2] was 57 nM.
For Nc1ccc(NCCn2cc(CCN3C[C@H](O)[C@@H](O)[C@H](O)[C@H]3CO)nn2)c([N+](=O)[O-])c1Cl [Compound 1253, (2R,3R,4R,5S)-1-[2-(1-{2-[(4-amino-3-chloro-2-nitrophenyl)amino]ethyl}-1H-1,2,3-triazol-4-yl)ethyl]-2-(hydroxymethyl)piperidine-3,4,5-triol], the IC50 [1] was > 100 µM and the IC50 [2] was 3440 nM.
N#CCc1ccc(NCCCCCCN2C[C@H](O)[C@@H](O)[C@H](O)[C@H]2CO)c([N+](=O)[O-])c1 [Compound 1299, 2-[3-nitro-4-({6-[(2R,3R,4R,5S)-3,4,5-trihydroxy-2-(hydroxymethyl)piperidin-1-yl]hexyl}amino)phenyl]acetonitrile] was tested, and the IC50 [1] was 3.39 µM and the IC50 [2] was 37 nM.
For Cc1cc(NCc2cccc(CN3C[C@H](O)[C@@H](O)[C@H](O)[C@H]3CO)n2)cc(-c2ccco2)c1 [Compound 1334, (2R,3R,4R,5S)-1-{[6-({[3-(furan-2-yl)-5-methylphenyl]amino}methyl)pyridin-2-yl]methyl}-2-(hydroxymethyl)piperidine-3,4,5-triol], the IC50 [1] was > 100 µM and the IC50 [2] was 336 nM.
COc1ccc(C#CCCCCCN2C[C@H](O)[C@@H](O)[C@H](O)[C@H]2CO)cc1 [Compound 1338, (2R,3R,4R,5S)-2-(hydroxymethyl)-1-[7-(4-methoxyphenyl)hept-6-yn-1-yl]piperidine-3,4,5-triol] gave an IC50 [1] of 9.44 µM and an IC50 [2] of 371 nM.
In the case of [N-]=[N+]=Nc1ccc(NCCCCCCN2C[C@H](O)[C@@H](O)[C@H](O)[C@H]2CO)c(C(N)=O)c1 [Compound 1296, 5-azido-2-({6-[(2R,3R,4R,5S)-3,4,5-trihydroxy-2-(hydroxymethyl)piperidin-1-yl]hexyl}amino)benzamide], the IC50 [1] is reported as 3.26 µM and the IC50 [2] is reported as 494 nM.
Molecule Cc1cc(Br)cc(NCc2ccc(CN3C[C@H](O)[C@@H](O)[C@H](O)[C@H]3CO)cc2)c1 [Compound 1024, (2R,3R,4R,5S)-1-[(4-{[(3-bromo-5-methylphenyl)amino]methyl}phenyl)methyl]-2-(hydroxymethyl)piperidine-3,4,5-triol] has an IC50 [1] of 21.1 µM and an IC50 [2] of 14 nM.
Work on [N-]=[N+]=Nc1ccc(NCCn2cc(CCN3C[C@H](O)[C@@H](O)[C@H](O)[C@H]3CO)nn2)c([N+](=O)[O-])c1 [Compound 1272, (2R,3R,4R,5S)-1-[2-(1-{2-[(4-azido-2-nitrophenyl)amino]ethyl}-1H-1,2,3-triazol-4-yl)ethyl]-2-(hydroxymethyl)piperidine-3,4,5-triol] yielded an IC50 [1] of 4.1 µM and an IC50 [2] of 1880 nM.
Molecule CN(C)Cc1ccc(NCCCCCCN2C[C@H](O)[C@@H](O)[C@H](O)[C@H]2CO)c(C(F)(F)F)c1 [Compound 1259, (2R,3R,4R,5S)-1-[6-({4-[(dimethylamino)methyl]-2-(trifluoromethyl)phenyl}amino)hexyl]-2-(hydroxymethyl)piperidine-3,4,5-triol] has an IC50 [1] of 1.35 µM and an IC50 [2] of 417 nM.
With CN(Cc1cccc(CN2C[C@H](O)[C@@H](O)[C@H](O)[C@H]2CO)c1)c1ccc(CN2CCCO2)cc1[N+](=O)[O-] [Compound 1020] the IC50 [1] was 76.3 µM and the IC50 [2] was 129 nM.
Work on Cc1cc(-c2ncccn2)ccc1NCCCCCCN1C[C@H](O)[C@@H](O)[C@H](O)[C@H]1CO [Compound 1233, (2R,3R,4R,5S)-2-(hydroxymethyl)-1-(6-{[2-methyl-4-(pyrimidin-2-yl)phenyl]amino}hexyl)piperidine-3,4,5-triol] yielded an IC50 [1] of 1.31 µM and an IC50 [2] of 130 nM.
With CC#Cc1ccc(NCCCCCCN2C[C@H](O)[C@@H](O)[C@H](O)[C@H]2CO)c([N+](=O)[O-])c1 [Compound 1290, (2R,3R,4R,5S)-2-(hydroxymethyl)-1-(6-{[2-nitro-4-(prop-1-yn-1-yl)phenyl]amino}hexyl)piperidine-3,4,5-triol] the IC50 [1] was 0.175 µM and the IC50 [2] was < 10 nM.
With COCCc1ccc(CCCN2C[C@H](O)[C@@H](O)[C@H](O)[C@H]2CO)cc1 [Compound 1308, (2R,3R,4R,5S)-2-(hydroxymethyl)-1-{3-[4-(2-methoxyethyl)phenyl]propyl}piperidine-3,4,5-triol] the IC50 [1] was 50.9 µM and the IC50 [2] was 331 nM.
COc1ccc(CCCCCCCN2C[C@H](O)[C@@H](O)[C@H](O)[C@H]2CO)cc1 [Compound 1309, (2R,3R,4R,5S)-2-(hydroxymethyl)-1-[7-(4-methoxyphenyl)heptyl]piperidine-3,4,5-triol] was tested, and the IC50 [1] was 2.34 µM and the IC50 [2] was 155 nM.
Molecule COc1cc(NCCCCCCN2C[C@H](O)[C@@H](O)[C@H](O)[C@H]2CO)cc(-c2ncc[nH]2)c1 [Compound 1219, (2R,3R,4R,5S)-2-(hydroxymethyl)-1-(6-{[3-(1H-imidazol-2-yl)-5-methoxyphenyl]amino}hexyl)piperidine-3,4,5-triol] has an IC50 [1] of 8.67 µM and an IC50 [2] of 64 nM.
Molecule [N-]=[N+]=Nc1ccc(NCCCCCCN2C[C@H](O)[C@@H](O)[C@H](O)[C@H]2CO)c(C(=O)O)c1 [Compound 1297, 5-azido-2-({6-[(2R,3R,4R,5S)-3,4,5-trihydroxy-2-(hydroxymethyl)piperidin-1-yl]hexyl}amino)benzoic acid] has an IC50 [1] of 3.52 µM and an IC50 [2] of 800 nM.
For Cc1cc(NCc2cnc(CN3C[C@H](O)[C@@H](O)[C@H](O)[C@H]3CO)cn2)cc(N2CCOCC2)c1 [Compound 1332, (2R,3R,4R,5S)-2-(hydroxymethyl)-1-{[5-({[3-methyl-5-(morpholin-4-yl)phenyl]amino}methyl)pyrazin-2-yl]methyl}piperidine-3,4,5-triol], the IC50 [1] was > 100 µM and the IC50 [2] was 3500 nM.
Work on COCCCCCN(CCCNc1ccc(N=[N+]=[N-])cc1[N+](=O)[O-])CCCN1C[C@H](O)[C@@H](O)[C@H](O)[C@H]1CO [Compound 1221, (2R,3R,4R,5S)-1-[3-({3-[(4-azido-2-nitrophenyl)amino]propyl}(5-methoxypentyl)amino)propyl]-2-(hydroxymethyl)piperidine-3,4,5-triol] yielded an IC50 [1] of 0.057 µM and an IC50 [2] of 424 nM.
With OC[C@@H]1[C@@H](O)[C@H](O)[C@@H](O)CN1CCCCCCNc1cc(Cl)cc(-c2ncccn2)c1 [Compound 1212, (2R,3R,4R,5S)-1-(6-{[3-chloro-5-(pyrimidin-2-yl)phenyl]amino}hexyl)-2-(hydroxymethyl)piperidine-3,4,5-triol] the IC50 [1] was 0.386 µM and the IC50 [2] was 89 nM.
